# Biological target: T1, NO synthase (Rattus norvegicus, UniProt P29476)
# T1 construct: the supernatant was then removed by decantation and frozen in portions at −80° C; from tissue; host or cells: rat cerebellum, 20,000 g supernatant of homogenate
# Assay: HTS-NOS assay (NOS assay): conversion of radioactive arginine, cation-exchanger filter plate
# Type: biochemical
# Conditions: 10 μM
# Outline: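 Percent inhibition was derived by comparing remaining radioactive arginine with compound-free controls. Arginine retained on phosphate cation-exchanger filters was counted after citrulline washout, following a 5-60 min room-temperature (25 °C) reaction of labelled arginine, NADPH-containing medium and rat cerebellar homogenate supernatant.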
row,Compound,HTS-NOS assay: % inhibition (10 μM)
1,"C#[N+]CCCCCCNc1c(-c2cccnc2)nc2cc(C)ccn12 [Example 19, Methylidyne-[6-(7-methyl-2-pyridin-3-yl-imidazo[1,2-a]pyridin-3-ylamino)-hexyl]-ammonium]",53%
2,"Cc1ccn2c(NC3CCCCC3)c(-c3ccccc3C)nc2c1 [Example 10, Cyclohexyl-(7-methyl-2-o-tolyl-imidazol[1,2-a]pyridin-3-yl)-amine]",54%
3,"C#[N+]CCCCCCN(C(C)=O)c1c(-c2ccccn2)nc2cc(C)cc(C)n12 [Example 289, {6-[acetyl-(5,7-dimethyl-2-pyridin-2-yl-imidazo[1,2-a]pyridin-3-yl)-amino]-hexyl}-methylidyne-ammonium]",63%

# Same assay, conditions: Table 5; concentration not given
row,Compound,NOS assay % inhibition
1,"Cc1cc(C)n2c(NC3CCCC3)c(-c3ccc(-c4ccccc4[N+](=O)[O-])o3)nc2c1.Cl [Example 305, Cyclopentyl-{5,7-dimethyl-2-[5-(2-nitro-phenyl)-furan-2-yl]-imidazo[1,2-a]pyridin-3-yl}-amine hydrochloride]",55%

# Same assay, conditions: Table 5; concentration not given; hydrochloride
row,Compound,NOS assay % inhibition
1,"Cc1cc(C)n2c(NC3CCCCC3)c(-c3ccoc3)nc2c1.Cl [Example 310, Cyclohexyl-(2-furan-3-yl-5,7-dimethyl-imidazo-[1,2-a]pyridin-3-yl)-amine hydrochloride]",52%

# Same assay, conditions: read-out: HTS-NOS assay: % inhibition (10 μM)
row,Compound,inhibition at 10 µM
1,"CC(=O)N(c1c(-c2cc3ccccc3o2)nc2cc(C)ccn12)C(C)(C)CC(C)(C)C [Example 216, N-(2-benzofuran-2-yl-7-methyl-imidazo[1,2-a]pyridin-3-yl)-N-(1,1,3,3-tetramethyl-butyl)-acetamide]",50%
2,"Cc1ccn2c(NC3CCCCC3)c(-c3ccccc3Br)nc2c1 [Example 100, [2-(2-Bromophenyl)-7-methyl-imidazo[1,2-a]pyridin-3-yl]-cyclohexyl-amine]",50%
3,"Cc1cc(C)n2c(NC(C)(C)C)c(-c3ccco3)nc2c1 [Example 25, Tert-butyl-(2-furan-2-yl-5,7-dimethyl-imidazo[1,2-a]pyridin-3-yl)-amine]",60%
4,"CC(=O)N(c1c(C)cccc1C)c1c(-c2cccc(Oc3ccc(Cl)cc3)c2)nc2ccccn12 [Example 195, N-{2-[3-(4-chloro-phenoxy)-phenyl]-imidazo[1,2-a]pyridin-3-yl}-N-(2,6-dimethyl-phenyl)-acetamide]",54%
5,"Cc1cc(C)n2c(NC(C)(C)CC(C)(C)C)c(-c3cccc(Cl)c3Cl)nc2c1 [Example 84, [2-(2,3-Dichlorophenyl)-5,7-dimethyl-imidazo[1,2-a]pyridin-3-yl]-(1,1,3,3-tetramethyl-butyl)-amine]",54%
6,"CC(=O)N(c1c(-c2cccnc2)nc2cc(C)ccn12)C(C)(C)CC(C)(C)C [Example 168, N-(7-methyl-2-pyridin-3-yl-imidazo[1,2-a]pyridin-3-yl)-N-(1,1,3,3-tetramethylbutyl)-acetamide]",56%
7,"Cc1ccn2c(NC3CCCCC3)c(-c3ccccc3F)nc2c1 [Example 21, Cyclohexyl-(2-(2-fluoro-phenyl)-7-methyl-imidazo[1,2-a]pyridin-3-yl]-amine]",53%
8,"Cc1ccn2c(NC3CCCCC3)c(-c3cccs3)nc2c1 [Example 11, Cyclohexyl-(7-methyl-2-thiophen-2-yl-imidazo[1,2-a]pyridin-3-yl)-amine]",60%
9,"COc1cccc(-c2nc3cc(C)cc(C)n3c2NC(C)(C)CC(C)(C)C)c1OC [Example 108, (2-(2,3-Dimethoxy-phenyl)-5,7-dimethyl-imidazo[1,2-a]pyridin-3-yl]-(1,1,3,3-tetramethyl-butyl)-amine]",73%
10,"Cc1cc(C)n2c(NC(C)(C)CC(C)(C)C)c(-c3cccnc3)nc2c1 [Example 12, (5,7-Dimethyl-2-pyridin-3-yl-imidazo[1,2-a]-pyridin-3-yl)-(1,1,3,3-tetramethyl-butyl)-amine]",61%
11,"CCCCNc1c(-c2ccc(C(=O)O)s2)nc2cnccn12 [Example 113, 5-(3-Butylamino-imidazo[1,2-a]pyrazin-2-yl)-thiophene-2-carboxylic acid]",54%
12,"CCCCNc1c(-c2cccc(O)c2)nc2cc(C)cc(C)n12 [Example 73, 3-(3-Butylamino-5,7-dimethyl-imidazo[1,2-a]pyridin-2-yl)-phenol]",61%
13,"CC(=O)N(c1c(-c2ccc(C(=O)O)s2)nc2cnccn12)C(C)(C)CC(C)(C)C [Example 205, 5-{3-[acetyl-(1,1,3,3-tetramethyl-butyl)-amino]-imidazo[1,2-a]pyrazin-2-yl}-thiophene-2-carboxylic acid]",52%
14,"CC(=O)N(c1c(-c2ccc(C)o2)nc2cc(C)cc(C)n12)C1CCCCC1 [Example 170, N-cyclohexyl-N-[5,7-dimethyl-2-(5-methyl-furan-2-yl)-imidazo[1,2-a]pyridin-3-yl]-acetamide]",65%
15,"COc1ccc(-c2nc3cc(C)ccn3c2Nc2c(C)cccc2C)cc1OC [Example 54, [2-(3,4-Dimethoxy-phenyl)-7-methyl-imidazo[1,2-a]pyridin-3-yl]-(2,6-dimethyl-phenyl)-amine]",64%
16,"Cc1ccn2c(NC(C)(C)CC(C)(C)C)c(-c3cccc(O)c3)nc2c1 [Example 83, 3-[7-Methyl-3-(1,1,3,3-tetramethyl-butylamino)-imidazo[1,2-a]pyridin-2-yl]-phenol]",60%
17,"COc1cccc(-c2nc3cc(C)ccn3c2Nc2c(C)cccc2C)c1OC [Example 39, [2-(2,3-Dimethoxy-phenyl)-7-methyl-imidazo[1,2-a]pyridin-3-yl]-(2,6-dimethyl-phenyl)-amine]",58%
18,"Cc1cccn2c(NC(C)(C)CC(C)(C)C)c(-c3cc4ccccc4o3)nc12 [Example 115, (2-Benzofuran-2-yl-8-methyl-imidazo[1,2-a]pyridin-3-yl)-(1,1,3,3-tetramethyl-butyl)-amine]",59%
19,"CC(=O)N(c1c(C)cccc1C)c1c(C(C)(C)C)nc2cc(C)cc(C)n12 [Example 179, N-(2-tert-butyl-5,7-dimethyl-imidazo[1,2-a]pyridin-3-yl)-N-(2,6-dimethylphenyl)-acetamide]",60%
20,"Cc1ccn2c(NC(C)(C)C)c(C)nc2c1 [Example 94, Tert-butyl-(2,7-dimethyl-imidazo[1,2-a]-pyridin-3-yl)-amine]",65%
21,"CC(=O)N(c1c(-c2c(F)cccc2Cl)nc2ccccn12)C(C)(C)C [Example 258, N-tert-butyl-N-[2-(2-chloro-6-fluoro-phenyl)-imidazo[1,2-a]pyridin-3-yl]-acetamide]",60%
22,"CC(=O)N(c1c(-c2ccc(C3OCCO3)o2)nc2cccc(C)n12)C1CCCCC1 [Example 264, N-cyclohexyl-N-[2-(5-[1,3]dioxolan-2-yl-furan-2-yl)-5-methyl-imidazo[1,2-a]-pyridin-3-yl]-acetamide]",50%
23,"Cc1ccn2c(NC(C)(C)C)c(C3CCCCC3)nc2c1 [Example 93, Tert-butyl-(2-cyclohexyl-7-methyl-imidazo[1,2-a]pyridin-3-yl)-amine]",52%
24,"CCCc1cccc2nc(-c3cccs3)c(N(C(C)=O)C(C)(C)C)n12 [Example 278, N-tert-butyl-N-(5-propyl-2-thiophen-2-yl-imidazo[1,2-a]pyridin-3-yl)-acetamide]",55%
